Tests used:
[1] = tested on: Platelet-derived growth factor receptor alpha (Homo sapiens), P16234 [D842V]; assay: (§1) Selectivity interaction (SelectScreen profiling (Invitrogen)) EUB0000607a PDGFRA; details: at 2 µM
[2] = tested on: Platelet-derived growth factor receptor alpha (Homo sapiens), P16234 [V561D]; assay: as §1; details: at 2 µM
[3] = molecular target: Platelet-derived growth factor receptor alpha (Homo sapiens, UniProt P16234); assay: as §1; details: at 2 µM
[4] = tested on: Platelet-derived growth factor receptor alpha (Homo sapiens), P16234 [T674I]; assay: as §1; details: at 2 µM
[5] = molecular target: Tyrosine-protein kinase ABL1 (Homo sapiens, UniProt P00519); assay: Selectivity interaction (Kinase panel (Invitrogen)) EUB0000639a ABL1; details: at 200 nM
[6] = molecular target: Casein kinase I isoform gamma-1 (Homo sapiens) (UniProt Q9HCP0); assay: Selectivity interaction (Kinase panel (Invitrogen)) EUB0000639a CSNK1G1; details: at 200 nM
[7] = molecular target: Serine/threonine-protein kinase 10 (Homo sapiens) (UniProt O94804); assay: Selectivity interaction (ActivX KiNativ screen (kinase selectivity in THP-1 cell lysates)) EUB0000639a STK10; assay type: subcellular; details: lysate
[8] = molecular target: Dual specificity tyrosine-phosphorylation-regulated kinase 1B (Homo sapiens, UniProt Q9Y463); assay: Selectivity interaction (KinomeScan (DiscoverX)) EUB0001049a DYRK1B; details: at 1 µM
[9] = molecular target: cAMP-dependent protein kinase catalytic subunit beta (Homo sapiens) (UniProt P22694); assay: Selectivity interaction (KinomeScan (DiscoverX)) EUB0001049a PRKACB; details: at 1 µM
[10] = molecular target: Protein kinase C beta type (Homo sapiens, UniProt P05771); assay: Selectivity interaction (Kinase screening (Nanosyn)) EUB0000604a PRKCB
[11] = molecular target: T1, Protein arginine N-methyltransferase 7 (Homo sapiens) (UniProt Q9NVM4); details: at 1 µM
T1 sequence (whole entry): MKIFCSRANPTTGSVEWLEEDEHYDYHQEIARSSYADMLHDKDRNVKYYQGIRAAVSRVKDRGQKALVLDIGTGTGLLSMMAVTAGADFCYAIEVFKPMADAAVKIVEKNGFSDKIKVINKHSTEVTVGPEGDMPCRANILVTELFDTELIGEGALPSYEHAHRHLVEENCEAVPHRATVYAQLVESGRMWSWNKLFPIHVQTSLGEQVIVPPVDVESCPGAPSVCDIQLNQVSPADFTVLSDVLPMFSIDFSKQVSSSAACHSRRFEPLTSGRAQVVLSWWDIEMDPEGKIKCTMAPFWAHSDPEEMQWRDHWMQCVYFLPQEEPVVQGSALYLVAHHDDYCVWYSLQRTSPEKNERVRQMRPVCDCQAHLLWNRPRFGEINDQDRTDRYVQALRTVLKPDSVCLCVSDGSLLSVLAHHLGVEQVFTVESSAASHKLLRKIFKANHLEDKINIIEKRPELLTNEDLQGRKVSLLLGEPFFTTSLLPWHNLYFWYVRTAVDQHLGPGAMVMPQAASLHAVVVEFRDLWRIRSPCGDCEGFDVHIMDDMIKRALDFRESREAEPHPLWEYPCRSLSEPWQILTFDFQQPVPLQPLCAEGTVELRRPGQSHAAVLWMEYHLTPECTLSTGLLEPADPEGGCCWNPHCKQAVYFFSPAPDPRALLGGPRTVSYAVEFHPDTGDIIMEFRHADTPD

[12] = molecular target: MAP/microtubule affinity-regulating kinase 3 (Homo sapiens) (UniProt P27448); assay: Selectivity interaction (KinomeScan (DiscoverX)) EUB0000229b MARK3; details: at 10 µM
[13] = molecular target: T2, Serine/threonine-protein kinase LATS2 (Homo sapiens) (UniProt Q9NRM7); assay: Selectivity interaction (KinomeScan (DiscoverX)) EUB0000092b LATS2; details: at 10 µM
T2 sequence (whole entry): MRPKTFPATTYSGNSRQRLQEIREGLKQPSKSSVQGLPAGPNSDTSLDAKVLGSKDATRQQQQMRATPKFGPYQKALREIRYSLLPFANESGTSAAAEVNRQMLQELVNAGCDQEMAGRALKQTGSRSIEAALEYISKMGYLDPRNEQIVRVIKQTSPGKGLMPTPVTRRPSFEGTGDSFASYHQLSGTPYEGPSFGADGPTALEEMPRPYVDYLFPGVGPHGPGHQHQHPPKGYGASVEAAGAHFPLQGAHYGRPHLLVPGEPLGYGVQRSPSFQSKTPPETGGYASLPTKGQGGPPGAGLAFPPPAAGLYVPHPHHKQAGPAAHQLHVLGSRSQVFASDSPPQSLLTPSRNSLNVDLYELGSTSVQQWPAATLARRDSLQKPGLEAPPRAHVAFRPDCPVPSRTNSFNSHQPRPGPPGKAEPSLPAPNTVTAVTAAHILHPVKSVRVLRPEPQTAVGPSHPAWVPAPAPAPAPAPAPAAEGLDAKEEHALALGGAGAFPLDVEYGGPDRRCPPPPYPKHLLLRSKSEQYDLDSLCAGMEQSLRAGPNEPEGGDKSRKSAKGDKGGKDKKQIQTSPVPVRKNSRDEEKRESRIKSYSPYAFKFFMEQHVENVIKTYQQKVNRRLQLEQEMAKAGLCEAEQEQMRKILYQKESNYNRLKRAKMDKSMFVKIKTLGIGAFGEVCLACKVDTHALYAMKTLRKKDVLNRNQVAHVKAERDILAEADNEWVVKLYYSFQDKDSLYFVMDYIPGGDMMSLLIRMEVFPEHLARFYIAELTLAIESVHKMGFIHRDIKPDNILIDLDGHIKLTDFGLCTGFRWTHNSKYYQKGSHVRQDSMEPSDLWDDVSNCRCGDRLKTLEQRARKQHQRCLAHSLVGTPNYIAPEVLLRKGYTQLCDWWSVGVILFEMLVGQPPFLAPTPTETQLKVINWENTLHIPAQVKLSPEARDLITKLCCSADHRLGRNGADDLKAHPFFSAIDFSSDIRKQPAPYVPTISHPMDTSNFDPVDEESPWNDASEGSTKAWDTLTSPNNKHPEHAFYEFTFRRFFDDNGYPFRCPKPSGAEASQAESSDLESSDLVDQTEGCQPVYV

[14] = molecular target: Homeodomain-interacting protein kinase 1 (Homo sapiens, UniProt Q86Z02); details: at 10 µM
[15] = molecular target: Dual specificity mitogen-activated protein kinase kinase 1 (Homo sapiens, UniProt Q02750); assay: Selectivity interaction (ActivX KiNativ screen (ex vivo kinase selectivity in human PBMCs)) EUB0001619a MAP2K1; assay type: cell-based; details: PBMC, at 1 µM
Dual specificity mitogen-activated protein kinase kinase 1, sequence (Q02750 whole entry): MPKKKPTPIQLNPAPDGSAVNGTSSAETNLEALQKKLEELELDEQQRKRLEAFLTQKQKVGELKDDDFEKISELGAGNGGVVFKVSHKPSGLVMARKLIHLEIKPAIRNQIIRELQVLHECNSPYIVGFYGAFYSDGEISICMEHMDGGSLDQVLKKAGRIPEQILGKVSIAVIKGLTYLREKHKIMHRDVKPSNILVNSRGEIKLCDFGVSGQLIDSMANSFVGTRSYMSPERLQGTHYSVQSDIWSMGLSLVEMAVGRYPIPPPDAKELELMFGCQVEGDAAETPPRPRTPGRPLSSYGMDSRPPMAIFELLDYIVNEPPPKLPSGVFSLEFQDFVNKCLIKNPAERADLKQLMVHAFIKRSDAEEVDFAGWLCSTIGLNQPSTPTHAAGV

Serine/threonine-protein kinase 10 (Homo sapiens), sequence (O94804 whole entry, looked up): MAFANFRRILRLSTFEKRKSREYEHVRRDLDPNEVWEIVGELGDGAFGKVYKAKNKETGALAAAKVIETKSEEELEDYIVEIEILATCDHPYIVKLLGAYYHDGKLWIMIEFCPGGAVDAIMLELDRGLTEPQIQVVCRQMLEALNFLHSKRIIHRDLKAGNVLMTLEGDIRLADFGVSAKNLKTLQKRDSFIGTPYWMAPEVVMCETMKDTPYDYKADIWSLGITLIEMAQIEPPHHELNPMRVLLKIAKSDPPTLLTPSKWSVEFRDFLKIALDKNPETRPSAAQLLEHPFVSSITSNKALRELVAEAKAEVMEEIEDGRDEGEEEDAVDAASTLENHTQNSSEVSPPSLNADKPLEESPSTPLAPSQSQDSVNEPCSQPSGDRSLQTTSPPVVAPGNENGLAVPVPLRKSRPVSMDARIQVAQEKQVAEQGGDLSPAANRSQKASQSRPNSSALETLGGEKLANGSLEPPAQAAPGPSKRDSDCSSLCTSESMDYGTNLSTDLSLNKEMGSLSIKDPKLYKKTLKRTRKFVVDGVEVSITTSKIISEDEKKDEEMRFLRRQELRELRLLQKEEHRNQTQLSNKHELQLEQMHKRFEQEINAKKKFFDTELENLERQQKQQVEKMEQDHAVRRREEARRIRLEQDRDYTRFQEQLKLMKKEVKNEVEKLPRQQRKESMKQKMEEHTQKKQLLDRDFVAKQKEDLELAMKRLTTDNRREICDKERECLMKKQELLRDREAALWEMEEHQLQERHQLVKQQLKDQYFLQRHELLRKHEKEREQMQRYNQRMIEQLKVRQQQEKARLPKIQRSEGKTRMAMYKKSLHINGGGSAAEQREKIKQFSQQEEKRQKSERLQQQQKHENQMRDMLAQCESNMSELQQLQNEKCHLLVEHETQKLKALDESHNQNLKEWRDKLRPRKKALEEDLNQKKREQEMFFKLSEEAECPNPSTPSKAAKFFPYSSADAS
Dual specificity tyrosine-phosphorylation-regulated kinase 1B, sequence (Q9Y463 whole entry, looked up): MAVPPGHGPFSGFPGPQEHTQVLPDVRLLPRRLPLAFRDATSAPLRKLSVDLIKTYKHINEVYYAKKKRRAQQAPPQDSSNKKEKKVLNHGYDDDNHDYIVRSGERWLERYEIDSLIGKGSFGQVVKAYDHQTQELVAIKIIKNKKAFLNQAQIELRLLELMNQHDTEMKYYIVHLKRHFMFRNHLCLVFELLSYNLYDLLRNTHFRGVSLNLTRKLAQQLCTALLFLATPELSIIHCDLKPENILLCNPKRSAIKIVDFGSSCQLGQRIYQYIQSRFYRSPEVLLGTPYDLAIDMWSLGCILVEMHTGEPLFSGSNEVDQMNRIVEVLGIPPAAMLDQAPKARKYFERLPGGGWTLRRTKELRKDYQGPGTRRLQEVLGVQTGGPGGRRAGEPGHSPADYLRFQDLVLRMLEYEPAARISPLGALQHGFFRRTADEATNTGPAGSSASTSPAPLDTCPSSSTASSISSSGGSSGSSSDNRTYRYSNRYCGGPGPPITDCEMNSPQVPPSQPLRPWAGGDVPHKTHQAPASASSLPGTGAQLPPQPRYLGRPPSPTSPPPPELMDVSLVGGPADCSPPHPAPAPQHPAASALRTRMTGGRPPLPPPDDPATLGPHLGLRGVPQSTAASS
Platelet-derived growth factor receptor alpha (Homo sapiens), P16234 [V561D], sequence (P16234 whole entry V561D): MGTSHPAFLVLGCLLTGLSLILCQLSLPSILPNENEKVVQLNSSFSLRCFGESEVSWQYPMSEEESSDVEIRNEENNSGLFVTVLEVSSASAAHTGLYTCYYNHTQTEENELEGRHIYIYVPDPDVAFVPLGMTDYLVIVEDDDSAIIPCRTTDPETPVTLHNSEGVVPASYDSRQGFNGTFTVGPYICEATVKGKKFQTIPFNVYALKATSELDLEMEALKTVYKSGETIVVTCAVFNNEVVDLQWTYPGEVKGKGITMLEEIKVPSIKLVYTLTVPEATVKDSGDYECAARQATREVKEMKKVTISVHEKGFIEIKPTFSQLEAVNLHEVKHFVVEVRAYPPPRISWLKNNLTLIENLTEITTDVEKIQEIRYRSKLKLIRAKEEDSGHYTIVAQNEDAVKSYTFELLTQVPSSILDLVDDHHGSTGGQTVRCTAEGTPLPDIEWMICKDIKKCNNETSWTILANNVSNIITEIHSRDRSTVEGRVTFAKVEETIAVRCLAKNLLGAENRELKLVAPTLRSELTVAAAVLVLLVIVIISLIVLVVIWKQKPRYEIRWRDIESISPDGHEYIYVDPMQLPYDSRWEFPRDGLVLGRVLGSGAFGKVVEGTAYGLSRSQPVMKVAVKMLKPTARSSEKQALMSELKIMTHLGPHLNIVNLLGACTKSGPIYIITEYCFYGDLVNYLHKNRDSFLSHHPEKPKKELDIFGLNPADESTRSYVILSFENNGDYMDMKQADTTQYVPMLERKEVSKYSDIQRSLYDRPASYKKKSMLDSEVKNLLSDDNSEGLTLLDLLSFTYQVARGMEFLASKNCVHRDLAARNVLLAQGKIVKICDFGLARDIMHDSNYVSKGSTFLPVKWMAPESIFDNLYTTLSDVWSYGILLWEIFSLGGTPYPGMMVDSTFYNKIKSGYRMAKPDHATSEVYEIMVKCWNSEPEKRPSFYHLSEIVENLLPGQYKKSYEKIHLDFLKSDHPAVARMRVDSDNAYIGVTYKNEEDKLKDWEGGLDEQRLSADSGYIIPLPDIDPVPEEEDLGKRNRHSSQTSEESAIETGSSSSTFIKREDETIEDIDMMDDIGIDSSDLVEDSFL
Platelet-derived growth factor receptor alpha (Homo sapiens), P16234 [D842V], sequence (P16234 whole entry D842V): as the sequence (P16234 whole entry V561D) above, with D561V, D842V counted along it
Protein kinase C beta type, sequence (P05771 2-671 limits assumed): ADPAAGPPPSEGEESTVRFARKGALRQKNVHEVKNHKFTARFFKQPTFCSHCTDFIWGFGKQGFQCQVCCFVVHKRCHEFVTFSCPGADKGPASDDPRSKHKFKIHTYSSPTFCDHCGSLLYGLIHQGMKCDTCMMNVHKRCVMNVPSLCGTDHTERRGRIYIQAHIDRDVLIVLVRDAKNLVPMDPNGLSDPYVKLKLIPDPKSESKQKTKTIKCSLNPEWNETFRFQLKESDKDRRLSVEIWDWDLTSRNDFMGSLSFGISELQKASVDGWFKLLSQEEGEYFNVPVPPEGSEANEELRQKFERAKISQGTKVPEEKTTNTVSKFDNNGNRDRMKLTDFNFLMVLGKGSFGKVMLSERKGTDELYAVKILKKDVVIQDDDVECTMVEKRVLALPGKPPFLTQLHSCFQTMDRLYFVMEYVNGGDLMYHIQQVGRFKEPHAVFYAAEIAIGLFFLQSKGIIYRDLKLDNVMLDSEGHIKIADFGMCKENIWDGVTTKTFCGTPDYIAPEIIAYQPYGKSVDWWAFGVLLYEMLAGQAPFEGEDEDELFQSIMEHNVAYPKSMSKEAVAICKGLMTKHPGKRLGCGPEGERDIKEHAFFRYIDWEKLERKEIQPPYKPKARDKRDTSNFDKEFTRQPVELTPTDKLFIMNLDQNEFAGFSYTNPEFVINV

`CNC(=O)Nc1ccc(-c2nc(N3CC4CCC(C3)O4)c3cnn(C4CCC5(CC4)OCCO5)c3n2)cc1` showed a % of inhibition [1] of 4%, a % of inhibition [2] of 3% and a % of inhibition [3] of 0%. For the same compound, the % of inhibition [4] was 12%.

Compound `CC[C@@H]1[C@H](F)C(=O)N[C@@H]1COc1nccc2cc(C(N)=O)c(OC)cc12` [ZIMLOVISERTIB] has a % of inhibition [5] of 2.51%, a % of inhibition [6] of 69.1% and a % of inhibition ([7]; at 0.01 µM) of -11.4%. It also gave a % of inhibition ([7]; at 0.04 µM) of -6.2%, a % of inhibition ([7]; at 0.2 µM) of -5.3% and a % of inhibition ([7]; at 1 µM) of 2.8%. The % of inhibition ([7]; at 5 µM) was -12.4%.

With `COc1cc(Nc2nc(C)cc(-c3cnn4nc(OC)ccc34)n2)cc(C(F)(F)F)c1` the % of control [8] was 100% and the % of control [9] was 100%.

With `Cc1cnc(Nc2ccc(F)cc2Cl)nc1-c1c[nH]c(C(=O)N[C@H](CO)c2cccc(Cl)c2)c1` the % of inhibition [10] was 4%.

In the case of `CNCCN1CCC(c2cc(CN(C)C(=O)c3cccc(Oc4ccccc4)c3)ccn2)CC1`, the % activity [11] is reported as over 90%.

For `COc1cc(N(C)c2ccnc3ccc(C(F)(F)F)cc23)cc(OC)c1OC`, the % binding [12] was 100%.

Work on `CCC(=O)N1CCN(c2ccc(-n3c(=O)ccc4cnc5ccc(-c6cnc7ccccc7c6)cc5c43)cc2C(F)(F)F)CC1` yielded a % of control [13] of 100%.

For `Cc1cc([C@@H](C)Nc2ccccc2C(=O)O)c2nc(N3CCOCC3)cc(=O)n2c1` [AZD-6482], the % of control [14] was 100%.

Compound `N#Cc1cccc(-c2c[nH]c3ncnc(N4CCOCC4)c23)c1` has a % of inhibition [15] of 14%.

— ChEMBL document CHEMBL5465560, “Selectivity Literature for EUbOPEN Chemogenomic Library” (2024)
